Data published in PubChem BioAssay (NCI).
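48-hour exposure; five concentrations; linearly interpolated endpoints. Definition used: TGI = concentration required for complete inhibition of growth.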

What was measured:
Assay in all cases: DTP human tumour cell line panel, 48 h
SF-295 CNS = test system: SF-295 CNS
A549 NSCLC = test system: A549 NSCLC
OVCAR-5 ovarian = test system: OVCAR-5 ovarian
RPMI-8226 leukemia = test system: RPMI-8226 leukemia
HOP-92 NSCLC = test system: HOP-92 NSCLC
SN12C renal = test system: SN12C renal
CAKI-1 renal = test system: CAKI-1 renal
KM20L2 colon = test system: KM20L2 colon
KM12 colon = test system: KM12 colon
U251 CNS = test system: U251 CNS
OVCAR-8 ovarian = test system: OVCAR-8 ovarian
M14 melanoma = test system: M14 melanoma
SNB-19 CNS = test system: SNB-19 CNS
SK-OV-3 ovarian = test system: SK-OV-3 ovarian
M19-MEL melanoma = test system: M19-MEL melanoma
NCI-H23 lung = test system: NCI-H23 lung
DMS 114 small cell lung = test system: DMS 114 small cell lung
HOP-62 NSCLC = test system: HOP-62 NSCLC
CCRF-CEM leukemia = test system: CCRF-CEM leukemia
NCI-H460 lung = test system: NCI-H460 lung
HT29 colon = test system: HT29 colon
TK-10 renal = test system: TK-10 renal
SK-MEL-5 melanoma = test system: SK-MEL-5 melanoma
RXF 393 renal = test system: RXF 393 renal
K-562 leukemia = test system: K-562 leukemia
SR leukemia = test system: SR leukemia
LOX IMVI melanoma = test system: LOX IMVI melanoma
HL-60(TB) leukemia = test system: HL-60(TB) leukemia
HCT-116 colon = test system: HCT-116 colon
NCI-H226 lung = test system: NCI-H226 lung
786-0 renal = test system: 786-0 renal
DMS 273 small cell lung = test system: DMS 273 small cell lung
ACHN renal = test system: ACHN renal
MALME-3M melanoma = test system: MALME-3M melanoma
SF-268 CNS = test system: SF-268 CNS
HCT-15 colon = test system: HCT-15 colon
SNB-75 CNS = test system: SNB-75 CNS
SF-539 CNS = test system: SF-539 CNS
OVCAR-3 ovarian = test system: OVCAR-3 ovarian
NCI-H522 lung = test system: NCI-H522 lung
OVCAR-4 ovarian = test system: OVCAR-4 ovarian
SK-MEL-28 melanoma = test system: SK-MEL-28 melanoma
SW-620 colon = test system: SW-620 colon
A498 renal = test system: A498 renal
MOLT-4 leukemia = test system: MOLT-4 leukemia
UO-31 renal = test system: UO-31 renal
COLO 205 colon = test system: COLO 205 colon
UACC-62 melanoma = test system: UACC-62 melanoma
UACC-257 melanoma = test system: UACC-257 melanoma
HCC-2998 colon = test system: HCC-2998 colon
SK-MEL-2 melanoma = test system: SK-MEL-2 melanoma
EKVX NSCLC = test system: EKVX NSCLC
IGROV1 ovarian = test system: IGROV1 ovarian
SNB-78 CNS = test system: SNB-78 CNS
LXFL 529 NSCLC = test system: LXFL 529 NSCLC
DLD-1 colon = test system: DLD-1 colon

Measured: TGI

COc1ccccc1C=NC12CC3CC(CC(C3)C1)C2
> 10 µM: DMS 114 small cell lung | HCT-116 colon | NCI-H226 lung
not listed: IGROV1 ovarian | SNB-78 CNS | LXFL 529 NSCLC | DLD-1 colon
> 100 µM: all other assays above

C#CCC(O)c1ccccc1C(O)CC#C (stereo unspecified)
95.2 µM: RXF 393 renal
not listed: U251 CNS | SR leukemia | HCT-116 colon | NCI-H226 lung | SF-268 CNS | SF-539 CNS | A498 renal
> 100 µM: all other assays above
